Results taken from patent publication US20220002373A1, “SINGLE-CHAIN INSULIN ANALOGUES WITH POLY-ALANINE C-DOMAIN SUB-SEGMENTS” (CASE WESTERN RESERVE UNIVERSITY, priority 2018, published 2022).

System: Sprague-Dawley rats made diabetic with streptozotocin
Assay: Pharmacodynamics after subcutaneous injection in a rat model of diabetes mellitus (blood-glucose concentration over time)
Assay type: in vivo
Settings: dose equivalent in nanomoles to 15 μg insulin lispro per 300-gram rat, relative to insulin lispro, FIG. 6
Protocol: The dose was 15 μg of insulin lispro per 300-gram rat; doses of the SCIs were equivalent in units of nanomoles per 300-gram rat (i.e., micrograms corrected for respective molecular masses).

SCI-4: 57-residue single-chain insulin analogue, C domain EAAAAA, substitutions His^A8, Glu^A14, Asp^B28, Pro^B29; expressed in Pichia pastoris (FVNQHLCGSHLVEALYLVCGERGFFYTDPTEAAAAAGIVEQCCHSICSLEQLENYCN)
integrated potency (area over the curve): essentially identical to that of insulin lispro
offset of action / duration of action (tail of insulin action): essentially identical to that of insulin lispro
onset of action: essentially identical to that of insulin lispro
